From the supplement of paper PMC10307832

How the values were obtained:
Experiment in all cases: relative viability (nuclei count vs DMSO), 5 days (fraction); higher = more cells survive
VE-821 + Alpelisib = compound: CS(=O)(=O)c1ccc(-c2cnc(N)c(C(=O)Nc3ccccc3)n2)cc1 [VE-821] + Cc1nc(NC(=O)N2CCC[C@H]2C(N)=O)sc1-c1ccnc(C(C)(C)C(F)(F)F)c1 [Alpelisib] (partner 2 µM)
Outline: (§1)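 After 5 days of treatment, lung cancer cells in 1536-well plates were fixed and stained in a single step (final 0.05% Triton X-100, 1% formaldehyde, 1 ug/ml Hoechst) and their nuclei counted on 4× images. Treatment had been applied by pin tool the day after seeding as one drug alone or as a fixed anchor-drug dose with five library-drug doses (not always all listed) in √10 steps. Relative viability is the nuclei count of treated wells divided by that of vehicle wells, and values are medians of duplicate plates.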

Vismodegib + Tozasertib = compound: CS(=O)(=O)c1ccc(C(=O)Nc2ccc(Cl)c(-c3ccccn3)c2)c(Cl)c1 [Vismodegib] + Cc1cc(Nc2cc(N3CCN(C)CC3)nc(Sc3ccc(NC(=O)C4CC4)cc3)n2)n[nH]1 [Tozasertib] (partner 0.1 µM)
Outline: as §1

Ruxolitinib + Navitoclax = compound: N#CC[C@H](C1CCCC1)n1cc(-c2ncnc3[nH]ccc23)cn1 [Ruxolitinib] + CC1(C)CCC(c2ccc(Cl)cc2)=C(CN2CCN(c3ccc(C(=O)NS(=O)(=O)c4ccc(N[C@H](CCN5CCOCC5)CSc5ccccc5)c(S(=O)(=O)C(F)(F)F)c4)cc3)CC2)C1 [Navitoclax] (partner 0.5 µM)
Outline: as §1

Ruxolitinib + AZD7762 = compound: N#CC[C@H](C1CCCC1)n1cc(-c2ncnc3[nH]ccc23)cn1 [Ruxolitinib] + NC(=O)Nc1cc(-c2cccc(F)c2)sc1C(=O)N[C@H]1CCCNC1 [AZD7762] (partner 0.2 µM)
Outline: as §1

Cell Line	relative viability (VE-821 + Alpelisib; first compound 0.08 µM)	relative viability (VE-821 + Alpelisib; first compound 0.253 µM)	relative viability (VE-821 + Alpelisib; first compound 0.8 µM)	relative viability (VE-821 + Alpelisib; first compound 2.53 µM)	relative viability (VE-821 + Alpelisib; first compound 8 µM)	relative viability (Vismodegib + Tozasertib; first compound 0.08 µM)	relative viability (Vismodegib + Tozasertib; first compound 0.253 µM)	relative viability (Vismodegib + Tozasertib; first compound 0.8 µM)	relative viability (Vismodegib + Tozasertib; first compound 2.53 µM)	relative viability (Vismodegib + Tozasertib; first compound 8 µM)	relative viability (Ruxolitinib + Navitoclax; first compound 0.08 µM)	relative viability (Ruxolitinib + Navitoclax; first compound 0.253 µM)	relative viability (Ruxolitinib + Navitoclax; first compound 0.8 µM)	relative viability (Ruxolitinib + Navitoclax; first compound 2.53 µM)	relative viability (Ruxolitinib + Navitoclax; first compound 8 µM)	relative viability (Ruxolitinib + AZD7762; first compound 0.08 µM)	relative viability (Ruxolitinib + AZD7762; first compound 0.253 µM)	relative viability (Ruxolitinib + AZD7762; first compound 0.8 µM)	relative viability (Ruxolitinib + AZD7762; first compound 2.53 µM)	relative viability (Ruxolitinib + AZD7762; first compound 8 µM)
NCI-H1651	1.09	1.08	0.702	1.01	0.849	0.617	0.704	0.643	0.604	0.704	0.978	1.08	1.11	1.36	0.996	0.512	0.449	0.533	0.545	0.689
NCI-H2170	0.979	0.808	0.624	0.777	0.543	0.733	0.664	0.673	0.675	0.743	0.6	0.575	0.618	0.593	0.48	0.908	0.834	0.959	0.76	0.706
NCI-H1975	0.621	0.598	0.46	0.534	0.406	0.892	0.744	0.733	0.643	0.261	1.13	1.04	1.15	0.698	0.591	0.669	0.643	0.675	0.67	0.501
NCI-H1437	1.02	0.901	0.693	0.993	0.705	0.395	0.398	0.396	0.38	0.392	1.12	1.14	1.14	1.05	0.884	1.18	1.11	1.19	1.04	0.925
HOP-62	1.09	0.646	0.723	0.928	0.93	0.307	0.327	0.345	0.343	0.332	1.02	1.17	1.11	1	1.11	0.437	0.796	0.564	0.627	0.704
NCI-H2405	0.908	0.808	0.67	0.984	0.573	0.705	0.733	0.7	0.709	0.765		0.771	1.28	0.456	0.471	0.738	0.792	0.818	0.488	0.416
LC-2-ad	0.991	0.846	0.926	1.01	0.686	0.504	0.545	0.427	0.434	0.462	0.376	0.435	0.444	0.257	0.243	0.875	0.865	0.821	0.792	0.693
NCI-H1944	0.954	0.804	0.53	0.885	0.452	0.261	0.285	0.26	0.269	0.232	0.998	0.959	1.03	0.887	0.955	0.576	0.612	0.642	0.469	0.68
